Data taken from US9340590B2 (priority 2011, dated 2016).
pIC50: −log10 of the molar value. Like-named read-outs stand apart in the source and are kept apart here. Positions of bridges follow the written chain, without caps; N, C: chain ends. Non-standard residues stand in square brackets, D forms with d. Residues, ends and D or L forms follow the SMILES beside them. 1Nal = N[C@@H](Cc1cccc2ccccc12)C(=O)O

What was measured:
Assay in all cases: cell-based
[1] = target: hNav1.3 (Homo sapiens, UniProt Q9NY46); assay type: cell-based; conditions: Nav1.3 Use IC50
[2] = target: hNav1.7 (Homo sapiens, UniProt Q15858); conditions: Nav1.7 Use IC50
[3] = target: hNav1.5 (Homo sapiens, UniProt Q14524)

Sequence of hNav1.3 (Q9NY46 whole entry, looked up): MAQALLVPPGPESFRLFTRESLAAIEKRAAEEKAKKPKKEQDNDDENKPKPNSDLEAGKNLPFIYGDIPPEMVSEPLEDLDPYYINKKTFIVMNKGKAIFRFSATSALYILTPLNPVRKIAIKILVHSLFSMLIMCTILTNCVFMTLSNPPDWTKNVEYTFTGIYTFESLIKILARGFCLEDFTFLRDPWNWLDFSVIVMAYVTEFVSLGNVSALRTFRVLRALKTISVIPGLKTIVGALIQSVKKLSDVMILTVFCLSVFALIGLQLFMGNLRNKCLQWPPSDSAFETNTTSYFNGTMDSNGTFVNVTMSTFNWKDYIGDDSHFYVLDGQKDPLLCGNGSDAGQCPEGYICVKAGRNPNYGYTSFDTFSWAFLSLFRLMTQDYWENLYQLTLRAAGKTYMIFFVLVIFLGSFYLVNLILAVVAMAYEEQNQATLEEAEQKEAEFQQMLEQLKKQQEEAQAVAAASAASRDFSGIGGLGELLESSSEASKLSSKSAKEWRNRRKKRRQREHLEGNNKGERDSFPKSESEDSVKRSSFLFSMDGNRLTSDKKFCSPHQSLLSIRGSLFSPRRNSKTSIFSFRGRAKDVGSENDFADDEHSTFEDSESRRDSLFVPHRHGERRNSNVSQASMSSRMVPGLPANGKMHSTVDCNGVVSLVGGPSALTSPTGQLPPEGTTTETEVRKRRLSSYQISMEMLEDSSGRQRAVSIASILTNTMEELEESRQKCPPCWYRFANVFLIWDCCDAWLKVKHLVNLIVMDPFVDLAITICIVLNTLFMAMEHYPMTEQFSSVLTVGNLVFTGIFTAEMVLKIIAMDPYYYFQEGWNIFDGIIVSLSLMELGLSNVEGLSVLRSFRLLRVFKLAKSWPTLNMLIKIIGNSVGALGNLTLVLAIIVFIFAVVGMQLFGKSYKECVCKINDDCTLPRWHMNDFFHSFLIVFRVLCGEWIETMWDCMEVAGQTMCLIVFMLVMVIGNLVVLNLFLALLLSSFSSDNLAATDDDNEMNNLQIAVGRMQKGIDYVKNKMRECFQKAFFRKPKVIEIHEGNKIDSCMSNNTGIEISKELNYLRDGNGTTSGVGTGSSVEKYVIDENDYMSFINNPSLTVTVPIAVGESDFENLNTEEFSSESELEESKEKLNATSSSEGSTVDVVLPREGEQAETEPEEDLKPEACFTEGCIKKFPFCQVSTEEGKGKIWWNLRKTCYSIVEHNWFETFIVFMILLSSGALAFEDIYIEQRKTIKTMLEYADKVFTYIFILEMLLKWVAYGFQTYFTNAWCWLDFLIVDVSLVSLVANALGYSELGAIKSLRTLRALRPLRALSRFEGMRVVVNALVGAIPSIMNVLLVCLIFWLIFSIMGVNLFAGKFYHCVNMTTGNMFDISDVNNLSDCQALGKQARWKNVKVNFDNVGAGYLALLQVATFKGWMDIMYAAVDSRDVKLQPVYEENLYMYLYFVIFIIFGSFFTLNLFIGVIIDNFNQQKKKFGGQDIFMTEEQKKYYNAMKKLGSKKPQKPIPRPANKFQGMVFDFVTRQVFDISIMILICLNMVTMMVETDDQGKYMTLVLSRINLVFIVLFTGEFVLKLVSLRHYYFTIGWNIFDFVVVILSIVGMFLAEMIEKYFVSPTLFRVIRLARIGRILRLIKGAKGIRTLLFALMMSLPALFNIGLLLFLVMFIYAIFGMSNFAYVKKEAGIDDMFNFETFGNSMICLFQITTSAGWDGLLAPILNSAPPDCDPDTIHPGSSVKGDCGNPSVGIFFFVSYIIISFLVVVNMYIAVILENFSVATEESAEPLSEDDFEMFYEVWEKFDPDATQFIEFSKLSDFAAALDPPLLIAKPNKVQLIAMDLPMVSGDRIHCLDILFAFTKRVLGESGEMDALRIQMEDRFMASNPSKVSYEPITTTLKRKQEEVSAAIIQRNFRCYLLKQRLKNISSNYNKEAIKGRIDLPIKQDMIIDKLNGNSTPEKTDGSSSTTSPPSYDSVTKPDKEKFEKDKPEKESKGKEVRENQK
Sequence of hNav1.7 (Q15858 whole entry, looked up): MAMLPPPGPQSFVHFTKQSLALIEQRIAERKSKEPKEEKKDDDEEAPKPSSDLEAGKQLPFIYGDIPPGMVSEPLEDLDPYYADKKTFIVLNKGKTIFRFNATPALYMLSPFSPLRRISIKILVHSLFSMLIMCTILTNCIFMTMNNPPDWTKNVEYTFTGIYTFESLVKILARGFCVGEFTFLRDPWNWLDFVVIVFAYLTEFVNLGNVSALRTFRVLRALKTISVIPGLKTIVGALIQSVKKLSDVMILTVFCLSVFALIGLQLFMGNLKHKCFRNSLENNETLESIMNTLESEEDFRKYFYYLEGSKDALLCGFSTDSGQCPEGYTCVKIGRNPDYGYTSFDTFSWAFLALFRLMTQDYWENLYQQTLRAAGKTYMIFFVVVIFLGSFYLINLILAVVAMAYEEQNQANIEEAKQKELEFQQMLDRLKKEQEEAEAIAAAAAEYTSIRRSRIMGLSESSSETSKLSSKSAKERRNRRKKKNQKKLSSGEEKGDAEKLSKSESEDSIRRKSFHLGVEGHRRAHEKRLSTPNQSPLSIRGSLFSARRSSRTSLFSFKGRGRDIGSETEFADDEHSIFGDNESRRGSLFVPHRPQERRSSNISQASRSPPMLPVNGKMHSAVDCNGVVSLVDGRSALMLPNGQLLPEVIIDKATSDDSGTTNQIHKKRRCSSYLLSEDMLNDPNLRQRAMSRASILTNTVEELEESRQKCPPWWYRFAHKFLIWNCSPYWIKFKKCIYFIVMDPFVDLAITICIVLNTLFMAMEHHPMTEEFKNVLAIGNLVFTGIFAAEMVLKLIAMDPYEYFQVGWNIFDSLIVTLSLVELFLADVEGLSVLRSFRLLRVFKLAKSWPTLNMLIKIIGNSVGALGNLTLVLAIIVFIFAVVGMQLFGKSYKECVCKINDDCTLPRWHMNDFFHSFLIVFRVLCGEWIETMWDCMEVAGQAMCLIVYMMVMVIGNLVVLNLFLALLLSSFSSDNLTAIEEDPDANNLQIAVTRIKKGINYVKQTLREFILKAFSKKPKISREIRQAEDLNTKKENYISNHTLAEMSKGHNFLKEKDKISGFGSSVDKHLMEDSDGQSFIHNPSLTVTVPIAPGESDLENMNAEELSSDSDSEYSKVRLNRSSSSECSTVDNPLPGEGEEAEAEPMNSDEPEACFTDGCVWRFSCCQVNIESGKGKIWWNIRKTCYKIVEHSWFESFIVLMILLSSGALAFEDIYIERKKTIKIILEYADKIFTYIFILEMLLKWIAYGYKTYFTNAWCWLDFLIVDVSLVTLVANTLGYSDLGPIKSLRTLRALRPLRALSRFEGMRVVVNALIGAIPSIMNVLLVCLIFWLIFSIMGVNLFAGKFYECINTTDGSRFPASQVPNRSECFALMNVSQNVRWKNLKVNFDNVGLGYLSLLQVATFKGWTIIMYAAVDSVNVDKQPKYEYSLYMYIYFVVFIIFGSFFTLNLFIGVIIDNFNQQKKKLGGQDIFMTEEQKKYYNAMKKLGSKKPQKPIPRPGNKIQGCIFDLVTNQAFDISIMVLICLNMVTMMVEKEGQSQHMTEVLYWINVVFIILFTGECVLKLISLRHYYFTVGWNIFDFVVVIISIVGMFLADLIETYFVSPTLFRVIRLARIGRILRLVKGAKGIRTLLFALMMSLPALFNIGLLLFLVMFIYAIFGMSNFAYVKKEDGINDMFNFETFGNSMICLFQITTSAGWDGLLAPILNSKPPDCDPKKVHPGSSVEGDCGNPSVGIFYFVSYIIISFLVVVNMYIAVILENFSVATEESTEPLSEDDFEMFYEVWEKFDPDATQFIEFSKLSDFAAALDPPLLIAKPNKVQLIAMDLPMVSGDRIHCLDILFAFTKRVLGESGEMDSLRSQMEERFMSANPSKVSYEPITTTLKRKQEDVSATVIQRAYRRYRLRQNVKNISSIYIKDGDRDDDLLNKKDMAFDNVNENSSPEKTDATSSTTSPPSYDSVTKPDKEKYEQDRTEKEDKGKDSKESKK

SMILES	pIC50 [1]	pIC50 [2]	pIC50 [3]	pIC50 ([3]; read-out: Nav1.5 Use IC50)
CC[C@H](C)[C@@H]1NC(=O)[C@@H]2CSSC[C@@H]3NC(=O)[C@H](C(C)C)NC(=O)[C@H](CC(C)C)NC(=O)[C@H](CC(N)=O)NC(=O)[C@@H]4CCCN4C(=O)[C@H](CCCNC(=N)N)NC(=O)[C@H](CSSC[C@H](NC(=O)[C@@H](N)CC(=O)O)C(=O)N[C@@H](CC(C)C)C(=O)NCC(=O)N[C@@H](Cc4ccccc4)C(=O)N[C@@H](CCSC)C(=O)N[C@@H](CCCNC(=N)N)C(=O)N[C@@H](CCCCN)C(=O)N2)NC(=O)[C@H](CSSC[C@@H](C(=O)N[C@@H](CCCCN)C(=O)N[C@@H](Cc2cccc4ccccc24)C(=O)N[C@H](C(=O)N[C@@H](Cc2ccccc2)C(N)=O)C(C)C)NC(=O)[C@H](Cc2c[nH]c4ccccc24)NC(=O)[C@H](CCCNC(=N)N)NC(=O)[C@H](Cc2c[nH]cn2)NC(=O)[C@H]([C@@H](C)O)NC(=O)[C@H](CCCNC(=N)N)NC(=O)[C@H](CO)NC3=O)NC(=O)[C@H](CCCCN)NC(=O)[C@H](CC(=O)O)NC(=O)[C@H](CC(N)=O)NC(=O)[C@H](CC(=O)O)NC(=O)[C@@H]2CCCN2C1=O [[Arg28;1-Nal32]GpTx-1(1-34)] (H-DCLGFMRKCIPDNDKCCRPNLVCSRTHRWCK[1Nal]VF-NH2; disulfide 2-17, 9-23, 16-30)	8.22	8.30	5.97	–
CC[C@H](C)[C@@H]1NC(=O)[C@@H]2CSSC[C@@H]3NC(=O)[C@H](C(C)C)NC(=O)[C@H](CC(C)C)NC(=O)[C@H](CC(N)=O)NC(=O)[C@@H]4CCCN4C(=O)[C@H](CCCNC(=N)N)NC(=O)[C@H](CSSC[C@H](NC(=O)[C@@H](N)CC(=O)O)C(=O)N[C@@H](CC(C)C)C(=O)NCC(=O)N[C@@H](Cc4ccccc4)C(=O)N[C@@H](CCSC)C(=O)N[C@@H](CCCNC(=N)N)C(=O)N[C@@H](CCCCN)C(=O)N2)NC(=O)[C@H](CSSC[C@@H](C(=O)N[C@@H](CCCCN)C(=O)N[C@@H](Cc2ccc(O)cc2)C(=O)N[C@H](C(=O)N[C@@H](Cc2ccccc2)C(N)=O)C(C)C)NC(=O)[C@H](Cc2c[nH]c4ccccc24)NC(=O)[C@H](CCCNC(=N)N)NC(=O)[C@H](Cc2c[nH]cn2)NC(=O)[C@H]([C@@H](C)O)NC(=O)[C@H](CCCNC(=N)N)NC(=O)[C@H](CO)NC3=O)NC(=O)[C@H](CCCCN)NC(=O)[C@H](CC(=O)O)NC(=O)[C@H](CC(N)=O)NC(=O)[C@H](CC(=O)O)NC(=O)[C@@H]2CCCN2C1=O [[Arg28]GpTx-1(1-34)]	7.92	8.15	–	5.06
CC[C@H](C)[C@@H]1NC(=O)[C@@H]2CSSC[C@@H]3NC(=O)[C@H](C(C)C)NC(=O)[C@H](CC(C)C)NC(=O)[C@H](CC(N)=O)NC(=O)[C@@H]4CCCN4C(=O)[C@H](CCCNC(=N)N)NC(=O)[C@H](CSSC[C@H](NC(=O)[C@@H](N)CC(=O)O)C(=O)N[C@@H](CC(C)C)C(=O)NCC(=O)N[C@@H](Cc4ccccc4)C(=O)N[C@@H](CCSC)C(=O)N[C@@H](CCCNC(=N)N)C(=O)N[C@@H](CCCCN)C(=O)N2)NC(=O)[C@H](CSSC[C@@H](C(=O)N[C@@H](CCCCN)C(=O)N[C@@H](Cc2ccc(O)cc2)C(=O)N[C@@H](CCC(N)=O)C(=O)N[C@@H](Cc2ccccc2)C(N)=O)NC(=O)[C@H](Cc2c[nH]c4ccccc24)NC(=O)[C@H](CCCCN)NC(=O)[C@H](Cc2c[nH]cn2)NC(=O)[C@H]([C@@H](C)O)NC(=O)[C@H](CCCNC(=N)N)NC(=O)[C@H](CO)NC3=O)NC(=O)[C@H](CCCCN)NC(=O)[C@H](CC(=O)O)NC(=O)[C@H](CC(N)=O)NC(=O)[C@H](CC(=O)O)NC(=O)[C@@H]2CCCN2C1=O [[Gln33]GpTx-1(1-34)] (H-DCLGFMRKCIPDNDKCCRPNLVCSRTHKWCKYQF-NH2; disulfide 2-17, 9-23, 16-30)	8.00	8.22	5.08	–
CC[C@H](C)[C@@H]1NC(=O)[C@@H]2CSSC[C@@H]3NC(=O)[C@H](C(C)C)NC(=O)[C@H](CC(C)C)NC(=O)[C@H](CC(N)=O)NC(=O)[C@@H]4CCCN4C(=O)[C@H](CCCNC(=N)N)NC(=O)[C@H](CSSC[C@H](NC(=O)[C@@H](N)CC(=O)O)C(=O)N[C@@H](CC(C)C)C(=O)NCC(=O)N[C@@H](Cc4ccccc4)C(=O)N[C@@H](CCSC)C(=O)N[C@@H](CCCNC(=N)N)C(=O)N[C@@H](CCCCN)C(=O)N2)NC(=O)[C@H](CSSC[C@@H](C(=O)N[C@@H](CCCCN)C(=O)N[C@@H](Cc2ccc(O)cc2)C(=O)N[C@@H](CCC(=O)O)C(=O)N[C@@H](Cc2ccccc2)C(N)=O)NC(=O)[C@H](Cc2c[nH]c4ccccc24)NC(=O)[C@H](CCCCN)NC(=O)[C@H](Cc2cnc[nH]2)NC(=O)[C@H]([C@@H](C)O)NC(=O)[C@H](CCCNC(=N)N)NC(=O)[C@H](CO)NC3=O)NC(=O)[C@H](CCCCN)NC(=O)[C@H](CC(=O)O)NC(=O)[C@H](CC(N)=O)NC(=O)[C@H](CC(=O)O)NC(=O)[C@@H]2CCCN2C1=O [[Glu33]GpTx-1(1-34)] (H-DCLGFMRKCIPDNDKCCRPNLVCSRTHKWCKYEF-NH2; disulfide 2-17, 9-23, 16-30)	7.28	7.57	< 5.00	–
CC[C@H](C)[C@H](NC(=O)[C@H](Cc1ccc(O)cc1)NC(=O)[C@H](CCCCN)NC(=O)[C@@H]1CSSC[C@@H]2NC(=O)[C@H](CCCCN)NC(=O)[C@H](CC(=O)O)NC(=O)[C@H](CC(N)=O)NC(=O)[C@H](CC(=O)O)NC(=O)[C@@H]3CCCN3C(=O)[C@H]([C@@H](C)CC)NC(=O)[C@@H]3CSSC[C@H](NC(=O)[C@H](C(C)C)NC(=O)[C@H](CC(C)C)NC(=O)[C@H](CC(N)=O)NC(=O)[C@@H]4CCCN4C(=O)[C@H](CCCNC(=N)N)NC(=O)[C@H](CSSC[C@H](NC(=O)[C@@H](N)CC(=O)O)C(=O)N[C@@H](CC(C)C)C(=O)NCC(=O)N[C@@H](Cc4ccccc4)C(=O)N[C@@H](CCSC)C(=O)N[C@@H](CCCNC(=N)N)C(=O)N[C@@H](CCCCN)C(=O)N3)NC2=O)C(=O)N[C@@H](CO)C(=O)N[C@@H](CCCNC(=N)N)C(=O)N[C@@H]([C@@H](C)O)C(=O)N[C@@H](Cc2c[nH]cn2)C(=O)N[C@@H](CCCCN)C(=O)N[C@@H](Cc2c[nH]c3ccccc23)C(=O)N1)C(=O)N[C@@H](Cc1ccccc1)C(N)=O [[Ile33]GpTx-1(1-34)] (H-DCLGFMRKCIPDNDKCCRPNLVCSRTHKWCKYIF-NH2; disulfide 2-17, 9-23, 16-30)	6.99	7.43	< 5.00	–
CC[C@H](C)[C@@H]1NC(=O)[C@@H]2CSSC[C@@H]3NC(=O)[C@H](C(C)C)NC(=O)[C@H](CC(C)C)NC(=O)[C@H](CC(N)=O)NC(=O)[C@@H]4CCCN4C(=O)[C@H](CCCNC(=N)N)NC(=O)[C@H](CSSC[C@H](NC(=O)[C@@H](N)CC(=O)O)C(=O)N[C@@H](CC(C)C)C(=O)NCC(=O)N[C@@H](Cc4ccccc4)C(=O)N[C@@H](CCSC)C(=O)N[C@@H](CCCNC(=N)N)C(=O)N[C@@H](CCCCN)C(=O)N2)NC(=O)[C@H](CSSC[C@@H](C(=O)N[C@@H](CCCCN)C(=O)N[C@@H](Cc2ccc(O)cc2)C(=O)N[C@H](C(=O)N[C@@H](Cc2ccccc2)C(N)=O)C(C)C)NC(=O)[C@H](Cc2c[nH]c4ccccc24)NC(=O)[C@H](CCCCN)NC(=O)[C@H](Cc2cnc[nH]2)NC(=O)[C@H](CC(C)C)NC(=O)[C@H](CCCNC(=N)N)NC(=O)[C@H](CO)NC3=O)NC(=O)[C@H](CCCCN)NC(=O)[C@H](CC(=O)O)NC(=O)[C@H](CC(N)=O)NC(=O)[C@H](CC(=O)O)NC(=O)[C@@H]2CCCN2C1=O [[Leu26]GpTx-1(1-34)] (H-DCLGFMRKCIPDNDKCCRPNLVCSRLHKWCKYVF-NH2; disulfide 2-17, 9-23, 16-30)	7.64	8.52	5.30	–
CC[C@H](C)[C@@H]1NC(=O)[C@@H]2CSSC[C@@H]3NC(=O)[C@H](C(C)C)NC(=O)[C@H](CC(C)C)NC(=O)[C@H](CC(N)=O)NC(=O)[C@@H]4CCCN4C(=O)[C@H](CCCNC(=N)N)NC(=O)[C@H](CSSC[C@H](NC(=O)[C@@H](N)CC(=O)O)C(=O)N[C@@H](CC(C)C)C(=O)NCC(=O)N[C@@H](Cc4ccccc4)C(=O)N[C@@H](CCSC)C(=O)N[C@@H](CCCNC(=N)N)C(=O)N[C@@H](CCCCN)C(=O)N2)NC(=O)[C@H](CSSC[C@@H](C(=O)N[C@@H](CCCCN)C(=O)N[C@@H](Cc2ccc(O)cc2)C(=O)N[C@H](C(=O)N[C@@H](Cc2ccccc2)C(N)=O)C(C)C)NC(=O)[C@H](Cc2c[nH]c4ccccc24)NC(=O)[C@H](CCCCN)NC(=O)[C@H]([C@@H](C)O)NC(=O)[C@H](CCCCN)NC(=O)[C@H](CCCNC(=N)N)NC(=O)[C@H](CO)NC3=O)NC(=O)[C@H](CCCCN)NC(=O)[C@H](CC(=O)O)NC(=O)[C@H](CC(N)=O)NC(=O)[C@H](CC(=O)O)NC(=O)[C@@H]2CCCN2C1=O [[Lys26;Thr27]GpTx-1(1-34)] (H-DCLGFMRKCIPDNDKCCRPNLVCSRKTKWCKYVF-NH2; disulfide 2-17, 9-23, 16-30)	7.80	8.40	5.86	–
CC[C@H](C)[C@@H]1NC(=O)[C@@H]2CSSC[C@@H]3NC(=O)[C@H](C(C)C)NC(=O)[C@H](CC(C)C)NC(=O)[C@H](CC(N)=O)NC(=O)[C@@H]4CCCN4C(=O)[C@H](Cc4c[nH]c5ccccc45)NC(=O)[C@H](CSSC[C@H](NC(=O)[C@@H](N)CC(=O)O)C(=O)N[C@@H](CC(C)C)C(=O)NCC(=O)N[C@@H](Cc4ccccc4)C(=O)N[C@@H](CCSC)C(=O)N[C@@H](CCCNC(=N)N)C(=O)N[C@@H](CCCCN)C(=O)N2)NC(=O)[C@H](CSSC[C@@H](C(=O)N[C@@H](CCCCN)C(=O)N[C@@H](Cc2ccc(O)cc2)C(=O)N[C@H](C(=O)N[C@@H](Cc2ccccc2)C(N)=O)C(C)C)NC(=O)[C@H](Cc2c[nH]c4ccccc24)NC(=O)[C@H](CCCCN)NC(=O)[C@H](Cc2c[nH]cn2)NC(=O)[C@H]([C@@H](C)O)NC(=O)[C@H](CCCNC(=N)N)NC(=O)[C@H](CO)NC3=O)NC(=O)[C@H](CCCCN)NC(=O)[C@H](CC(=O)O)NC(=O)[C@H](CC(N)=O)NC(=O)[C@H](CC(=O)O)NC(=O)[C@@H]2CCCN2C1=O [[Trp18]GpTx-1(1-34)] (H-DCLGFMRKCIPDNDKCCWPNLVCSRTHKWCKYVF-NH2; disulfide 2-17, 9-23, 16-30)	7.38	7.62	< 5.00	–
